Experimental data taken from paper PMC7264150 (Nature Communications, 2020).

Target: T1, Pl-TcdA1 (Photorhabdus luminescens, UniProt Q9RN43)
T1 construct: gene tcdA
Type: binding

## CC(=O)N[C@H]1C(O)O[C@H](CO)[C@@H](O[C@@H]2O[C@H](CO)[C@H](O)[C@H](O)[C@H]2O[C@@H]2O[C@@H](C)[C@@H](O)[C@@H](O)[C@@H]2O)[C@@H]1O[C@@H]1O[C@@H](C)[C@@H](O)[C@@H](O)[C@@H]1O (stereo partly shown) [Lewis Y]
  glycan microarray, AlexaFluor488-labelled toxin: tetrasaccharides Lewis Y and sialyl-Lewis X interacted strongly with Pl-TcdA1
